# Measured values published in the METLIN SMRT retention time set (Domingo-Almenara et al. 2019).
# Experiment: gradient 5% acetonitrile 3 min, to 50% in 2 min, to 85% in 15 min, held 3 min, 100 µL/min
# Conditions: column: Zorbax Extend-C18 2.1 x 50 mm; eluents: water / acetonitrile, 0.1% formic acid
# In short: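 The system's dead and dwell volumes were 40 μL and 900 μL, with a Zorbax Extend-C18 column (2.1 × 50 mm, 1.8 μm) run at 100 μL/min in water and acetonitrile containing 0.1% formic acid each. Pure standards were analyzed in mixtures of ~100 molecules by HPLC–quadrupole time-of-flight mass spectrometry in positive and negative ionization mode. Retention time was assigned from computationally picked, manually inspected adduct peaks.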
row,Compound,RP-LC retention time [s]
1,Cc1cccc(CNC(=O)CCC2CCN(c3cc(NC4CC4)ncn3)CC2)c1,672
2,COc1ccc(-c2noc(Cc3nc(-c4ccc(Br)cc4)cs3)n2)cc1OC,1200
3,O=c1n(Cc2cccc(Br)c2)nc2c(S(=O)(=O)N3CCc4ccccc4C3)cccn12,1030
4,Cc1ccc(S(=O)(=O)N2CCC3(CC2)NCCN=C3NCc2ccccc2Cl)cc1C,768
5,Cc1ccc(-c2nc(NC(=O)C(C)C)sc2C)cc1,1010
6,Cc1cc(-c2nnc(-c3ccc(F)cc3)o2)c(C)n1CC(=O)NCC1CCCO1 (centres undefined),771
7,N#CCCN1CCN(c2ccc(NC(=O)C3CC3)c(C(=O)O)c2)CC1,579
8,Cc1noc(-c2ccc(OC3CN(C(=O)Cc4cccs4)C3)cc2)n1,857
9,Cc1nnc(N2CCCC(C(=O)NCCCN3CCCCCC3)C2)c2nn(-c3ccccc3)c(C)c12 (centres undefined),586
10,CCCNC(=O)N1CCCC1c1nc(-c2cccc(Cl)c2)no1 (centres undefined),904
11,Cc1ccccc1-c1nc(C)c(C(=O)NC(C)C)s1,903
12,COC(=O)c1c(C)[nH]c(C(=O)N2CCC(CC(=O)NCCN3CCCCC3C)CC2)c1C (centres undefined),592
13,COC(=O)c1c(C)[nH]c(C(=O)N2CCCC(C(=O)N3CCC(C)CC3)C2)c1C (centres undefined),758
14,O=S(=O)(NCc1cccs1)c1ccc(Cl)c(-c2nnc(-c3ccccc3)o2)c1,1020
15,COc1cccc(CN2CCC3(CC2)C(OC)C(=O)N3c2cccc(F)c2)n1 (centres undefined),703
16,Cc1cc(OCC(=O)Nc2nc(-c3ccccc3)cs2)cc(C)c1Cl,1250
17,CCc1nc(N)n(CC(=O)NCc2ccc(C)cc2)c(=O)c1C,642
18,COc1cc(C(=O)N2CCCC(C)(C(=O)NCc3ccc(C)cc3)C2)cc(OC)c1OC (centres undefined),820
19,CC1CCN(S(=O)(=O)c2ccc3nc(N4CCN(c5ccccc5F)CC4)ccc3c2)CC1,1260
20,CCN1C(=O)C(C)(C(=O)Nc2ccccc2)Oc2cccnc21 (centres undefined),859
21,CC(=O)Nc1ccc(NC(=O)C2CCCN(c3nc4ccccc4nc3C(F)(F)F)C2)cc1 (centres undefined),910
22,CCC(CC)C(=O)Nc1nc(-c2ccc3c(c2)N(C)C(=O)C(C)O3)cs1 (centres undefined),992
23,COc1ccc(-c2c(C)noc2NC(C)=O)cc1S(=O)(=O)Nc1ccc(C)cc1Cl,837

row,Compound,RP-LC retention time [s]
1,COc1ccc(NC(=O)c2ccc(N3C(=O)CCC3=O)cc2)c2ccccc12,691
2,COc1cc(OC)cc(-c2nc(C3CC(=O)N(c4ccc(C)cc4)C3)no2)c1 (centres undefined),1010
3,Cc1ccc(-c2cc3c(N4CCCC(C(=O)NCCC5=CCCCC5)C4)nccn3n2)c(C)c1 (centres undefined),1150
4,CN1C(=O)C(c2c(-c3ccc(Br)cc3)[nH]c3[nH]c(=O)[nH]c(=O)c23)c2ccccc21 (centres undefined),721
5,Cc1nc2c(c(=O)n1CC(=O)NCCC1=CCCCC1)CCN(Cc1ccccc1)C2,666
6,Cc1c(Cl)cccc1S(=O)(=O)NC1CCN(c2ccccc2)C1=O (centres undefined),970
7,CC(C)CCNC(=O)c1nnc(-c2ccc(S(=O)(=O)N3CCOCC3)cc2)o1,851
8,CCNC(=O)C1CCN(S(=O)(=O)c2c(C)[nH]c(C)c2C(=O)N2CCCCC2)CC1,624
9,O=C(NCc1ccccc1)c1c(O)c2cccnc2[nH]c1=O,913
10,Cn1nc2n(c1=O)CCN(C(=O)c1ccn[nH]1)CC2,552
11,Cc1nc(-c2cc(S(=O)(=O)NC(C)Cc3ccco3)c(C)s2)sc1C (centres undefined),1060
12,COc1ccc(C(=O)Nc2nccnc2C(=O)NCCN2CCCCC2)cc1,590
13,O=C(CN1CCOCC1)N1CCCCC1c1nc(C2CC2)no1 (centres undefined),590
14,Fc1ccc(Cl)cc1CN1CC(COc2cccnc2)C2(CCOCC2)C1 (centres undefined),566
15,Cc1cc(OCC(=O)Nc2ccc(Cl)cc2F)nc(N2CCN(c3ccccc3)CC2)n1,945
16,Cc1noc(-c2nn(C)c3c2CN(C(=O)COc2ccccc2)CC3)n1,729
17,CCC(C)C(NC(=O)c1ccc2c(c1)OCO2)C(=O)Nc1nc2ccccc2[nH]1 (centres undefined),718
18,Cc1ccc(-c2noc(Cn3cnc4c(cnn4-c4ccc(C(C)C)cc4)c3=O)n2)cc1,1300
19,CN(C(=O)c1cc2c(=O)oc3ccccc3c2n1C)C1CCCCC1,908
20,CC(=O)c1ccc(NC(=O)CCc2c(C)nn(-c3cc(N4CCCC4)ncn3)c2C)cc1,769
21,CC(C)(O)CC(=O)NCCn1ccc2ncnc(Nc3ccc(Oc4cccc(C(F)(F)F)c4)c(Cl)c3)c21,802
22,COc1ccc(C(=O)N2CCC3(CC2)NC(=O)c2cc(F)ccc2N3C)c(OC)c1,734
23,Cc1csc(-c2cc(S(=O)(=O)N3CCOCC3)cn2CC(=O)N2CCCCC2)n1,846

row,Compound,RP-LC retention time [s]
1,Cc1ccc(N2CC(c3nc(-c4ccc(Cl)cc4)no3)CC2=O)cc1 (centres undefined),1010
2,COc1ccccc1NC(=O)c1oc2ccccc2c1NC(=O)Cc1ccc(F)cc1,1180
3,Cc1ccc(-c2nc(-c3ccc4nncn4c3)no2)cc1,870
4,O=C(COc1ccc(Cl)cc1)NCC#CCN1CCCC1,544
5,CN1C(=O)c2cc(C(=O)N3CCN(c4ncccn4)CC3)nn2CC1(C)C(=O)NC1CCCCCC1 (centres undefined),742
6,CSc1ccccc1NC(=O)C(=O)NCC1(c2cccs2)CCCC1,1280
7,CNC(=O)[C@@H]1CN(C(=O)c2cnccn2)C[C@H]1c1n[nH]c(C)n1,539
8,Cn1nc2n(c1=O)CCN(C(=O)c1cscn1)CC2,560
9,COc1cc(CNC(=O)c2cccc3c2CCN3C(=O)C2CC2)cc(OC)c1,809
10,Cc1cc(C)cc(NC(=O)C2CCN(S(=O)(=O)c3ccc4c(c3)NC(=O)C(C)O4)CC2)c1 (centres undefined),903
11,CCC1Oc2ccc(S(=O)(=O)N3CCC(C(=O)N4CCN(CC)CC4)CC3)cc2NC1=O (centres undefined),573
12,Cc1cc(NC(=O)c2ccccc2)cc(C)c1O,705
13,O=C(CCc1csc(NC(=O)c2ccc(F)cc2)n1)NCc1nc2ccccc2[nH]1,577
14,Cc1ccc(NC(=O)Cn2c(C)nc3onc(C)c3c2=O)c(Cl)c1,835
15,CCOC(=O)c1c(C)n(-c2ccc(N(C)C)cc2)c2ccc(OCC(N)=O)cc12,938
16,COc1cccc(-c2noc(Cn3c(=O)n(-c4ccccc4C)c(=O)c4sccc43)n2)c1,978
17,CCOC(=O)c1cccc(NC(=O)C2CCN(S(=O)(=O)c3cn(C)cn3)CC2)c1,735
18,CC(=O)c1cccc(NC(=O)Cn2ccc3ccc(-c4nnc(C)o4)cc32)c1,762
19,CN(Cc1ccc(Cl)c(F)c1)C1CCc2nnc(C3CCOCC3)n2CC1 (centres undefined),590
20,CCN1CCN(CCNC(=O)c2cccn2-c2nnc(N3CCCCCC3)s2)CC1,600
21,N#Cc1cccc(C(=O)Nc2cnn(-c3ncc(N4CCCC4)cn3)c2)c1,777
22,CCc1noc(NC(C)=O)c1-c1ccc(C)c(S(=O)(=O)NCc2ccccc2Cl)c1,914
23,O=C(NCc1ccco1)c1csc(-c2ccc(N3CCCCC3)nc2)n1,819

row,Compound,RP-LC retention time [s]
1,COc1cc(C=CC(=O)CC(=O)C=Cc2ccc(O)c(OC)c2)ccc1O,891
2,COc1ccc(S(=O)(=O)N2CC[C@H](n3c(=O)n(C)c4cccnc43)C2)cc1,794
3,Cc1ccc(C(=O)Nc2cc(-c3cccs3)no2)cc1,993
4,CCOc1ccccc1NC(=O)N1CCCC(C)(C(=O)NCc2ccc(F)cc2)C1 (centres undefined),983
5,COc1ccc(N2C=C(C(=O)N3CCOCC3)S(=O)(=O)c3ccccc32)cc1Cl,789
6,COc1ccccc1C(=O)N1CCC2(CC1)c1nccn1-c1ccccc1CN2CC(C)C,692
7,O=C(CN1C(=O)C2CCCCN2c2ccc(C(=O)N3CCCC3)cc21)NCc1ccccn1 (centres undefined),626
8,COCCn1c(SCC(=O)Nc2nc3ccccc3s2)nc2c(c1=O)SC(C)C2 (centres undefined),806
9,Cc1cccc(-c2nc3ccccn3c2NC(=O)NC2CCCC2)c1,639
10,Cn1cc(C2=CCN(C(=O)NC(C)(C)C)CC2)c2cccnc21,604
11,Cc1cc2c(=O)n(CC(=O)Nc3ccc(Cl)cc3)ccc2s1,852
12,COC(=O)c1ccc2c(=O)n(-c3ccc(F)c(Cl)c3)c(N3CCOCC3)nc2c1,967
13,CSc1ccc(NC(=O)c2cc3c(s2)CN(C2CC2)C3)cc1,644
14,COCC1CN(C(=O)CN2CCCC2=O)CCC1(F)F (centres undefined),598
15,Cc1ccc(CNC(=O)Cn2ncc3c(N4CCN(c5ccccn5)CC4)ncnc32)cc1,615
16,COc1ccc(NC(=O)N2CCCN(C3CCN(CC4CC4)C3=O)CC2)cc1Cl (centres undefined),569
17,COCCC(=O)N1CC(c2nc(CCOC)no2)C1,581
18,CCCNC(=O)c1cc(-c2ccc(F)cc2)cn1CC,925
19,CC(C)N1C(=O)C(C)(C(=O)NCc2ccc(Br)cc2)Oc2cccnc21 (centres undefined),1010
20,CC(C(=O)Nc1cc(F)ccc1F)C1CCN(C(=O)Nc2ccccc2)CC1 (centres undefined),867
